Measured values as given in ChEMBL document CHEMBL1144278, “A new bactericidal lead structure for the protection of materials” (Bioorg Med Chem Lett, 2005).
≈ marks a conversion by molar mass, not a printed value.

Tests used:
[1] = Half life period was determined; format: ADME; details: pH 9, 50 °C
Pseudomonas aeruginosa [2] = assay: Minimum inhibitory concentration against Pseudomonas aeruginosa NCIB 6749 was determined in complex medium; format: functional
Pseudomonas aeruginosa [3] = assay: Minimum inhibitory concentration against Pseudomonas aeruginosa NCIB 6749 was determined in chem. def. medium; format: functional
Pseudomonas aeruginosa [4] = assay: Minimum inhibitory concentration against Pseudomonas aeruginosa NCIB 12201 was determined in agar medium; format: functional
Pseudomonas aeruginosa [5] = assay: Minimum inhibitory concentration against Pseudomonas aeruginosa ATCC 15442 was determined in agar medium; format: functional
Alcaligenes faecalis = assay: Minimum inhibitory concentration against Alcaligenes faecalis was determined in agar medium; format: functional
Bacteria = assay: Minimum inhibitory concentration against Corynebacterium was determined in agar medium; format: functional
[6] = Lethal dose in rat; format: toxicity; details: in vivo
Bacillus subtilis = assay: Minimum inhibitory concentration against Bacillus subtilis; format: functional
[7] = Half life periof was determined; format: ADME
Pseudomonas aeruginosa [8] = assay: Minimum inhibitory concentration against Pseudomonas aeruginosa NCIB 6749 was determined in agar medium; format: functional

Compound | MIC (Pseudomonas aeruginosa [2]) | MIC (Pseudomonas aeruginosa [3]) | also measured
CCCC(=O)N(C(=O)CCC)c1onc2c1CCC2 |  |  | half-life [1]: 6 h
O=C(OCCBr)N(C(=O)OCCBr)c1onc2c1CCC2 | 5 µg/mL (≈ 11.7 µM) | 10 µg/mL (≈ 23.5 µM) | 
CCCCOC(=O)N(C(=O)OCCCC)c1onc2c1CCC2 | 10 µg/mL (≈ 30.8 µM) | 10 µg/mL (≈ 30.8 µM) | 
O=C(Nc1onc2c1CCC2)C(F)(F)F |  |  | half-life [1]: 105 h
CC(C)COC(=O)N(C(=O)OCC(C)C)c1onc2c1CCC2 | 5 µg/mL (≈ 15.4 µM) | 10 µg/mL (≈ 30.8 µM) | 
Nc1onc2c1CCC2 |  |  | MIC (Pseudomonas aeruginosa [4]): 7.5 µg/mL (≈ 60.4 µM); MIC (Pseudomonas aeruginosa [5]): 5 µg/mL (≈ 40.3 µM); MIC (Alcaligenes faecalis): < 1 µg/mL; MIC (Bacteria): < 1 µg/mL; LD50 [6]: < 300 mg/kg; MIC (Bacillus subtilis): 5 µg/mL (≈ 40.3 µM); half-life [7]: 97 h; MIC (Pseudomonas aeruginosa [8]): < 1 µg/mL
C=C(C)OC(=O)N(C(=O)OC(=C)C)c1onc2c1CCC2 | 10 µg/mL (≈ 34.2 µM) | 10 µg/mL (≈ 34.2 µM) | 
O=C(OCC(Cl)(Cl)Cl)N(C(=O)OCC(Cl)(Cl)Cl)c1onc2c1CCC2 | 5 µg/mL (≈ 10.5 µM) | 10 µg/mL (≈ 21.1 µM) | 
O=C(OCCCl)N(C(=O)OCCCl)c1onc2c1CCC2 | 5 µg/mL (≈ 14.8 µM) | 10 µg/mL (≈ 29.7 µM) | 
